Measured values published in ChEMBL document CHEMBL1201862, “PubChem BioAssay data set” (2004).
Active and inactive are the calls of the source.

Legend:
[1] = molecular target: Peroxisome proliferator-activated receptor gamma/Nuclear receptor corepressor 2 (Homo sapiens, UniProt P37231+Q9Y618); test: Counterscreen for NR2E3 inverse agonists: TR-FRET-based biochemical high throughput dose response assay to identify inverse agonists of the interaction between peroxisome proliferator-activated receptor gamma (PPARg) and nuclear receptor co-repressor 2 (NCOR2).; format: functional
[2] = molecular target: Photoreceptor-specific nuclear receptor (Homo sapiens, UniProt Q9Y5X4); test: NR2E3 inverse agonists, dose response, biochemical, TR-FRET (AID 463256); format: functional
[3] = molecular target: Voltage-gated inwardly rectifying potassium channel KCNH2 (Homo sapiens, UniProt Q12809); test: hERG protection from proarrhythmic block, potency, dose response, cell-based, thallium flux (AID 2121); format: ADME
NADPH oxidase 1 = molecular target: T1, NADPH oxidase 1 (Homo sapiens, UniProt Q9Y5S8); test: Late-stage luminescence-based cell-based dose response assay to identify inhibitors of NADPH oxidase 1 (NOX1): Purchased analogs 2.; format: functional
T1 sequence (Q9Y5S8 whole entry): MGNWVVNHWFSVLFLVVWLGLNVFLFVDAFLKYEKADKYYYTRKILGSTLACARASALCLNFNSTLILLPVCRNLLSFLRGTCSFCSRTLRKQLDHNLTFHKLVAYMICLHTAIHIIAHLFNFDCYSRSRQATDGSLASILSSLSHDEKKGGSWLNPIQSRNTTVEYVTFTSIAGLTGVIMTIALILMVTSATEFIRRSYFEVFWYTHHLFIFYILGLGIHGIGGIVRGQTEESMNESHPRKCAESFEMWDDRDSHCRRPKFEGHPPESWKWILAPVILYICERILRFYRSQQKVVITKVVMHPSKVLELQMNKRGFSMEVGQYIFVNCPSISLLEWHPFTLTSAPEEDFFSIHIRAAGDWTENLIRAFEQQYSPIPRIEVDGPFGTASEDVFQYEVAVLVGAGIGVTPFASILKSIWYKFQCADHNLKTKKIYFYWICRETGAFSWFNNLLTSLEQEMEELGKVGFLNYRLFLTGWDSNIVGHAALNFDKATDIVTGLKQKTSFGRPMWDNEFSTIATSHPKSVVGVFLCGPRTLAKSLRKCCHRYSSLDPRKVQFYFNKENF

Vero [4] = test: cells; format: functional; settings: Chlorocebus sabaeus
Vero [5] = test: cells; format: functional, cell-based; settings: Chlorocebus sabaeus
[6] = molecular target: Fructose-bisphosphate aldolase (Mycobacterium tuberculosis, UniProt P9WQA3); test: Fluorescence-based biochemical high throughput dose response assay for inhibitors of the fructose-bisphosphate aldolase (FBA) of M. tuberculosis.; format: functional
Vero [7] = test: West Nile virus antiviral activity, cell-based, CPE readout (AID 1621); format: functional; settings: Chlorocebus sabaeus
[8] = molecular target: T2, High affinity choline transporter 1 (Homo sapiens, UniProt Q9GZV3); test: CHT inhibitors, dose response, cell-based, 10-point CRC, membrane potential dye (AID 588401); format: functional;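 note: membrane potential dye fluorescence of choline-evoked depolarization via CHT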
T2 sequence (Q9GZV3 whole entry): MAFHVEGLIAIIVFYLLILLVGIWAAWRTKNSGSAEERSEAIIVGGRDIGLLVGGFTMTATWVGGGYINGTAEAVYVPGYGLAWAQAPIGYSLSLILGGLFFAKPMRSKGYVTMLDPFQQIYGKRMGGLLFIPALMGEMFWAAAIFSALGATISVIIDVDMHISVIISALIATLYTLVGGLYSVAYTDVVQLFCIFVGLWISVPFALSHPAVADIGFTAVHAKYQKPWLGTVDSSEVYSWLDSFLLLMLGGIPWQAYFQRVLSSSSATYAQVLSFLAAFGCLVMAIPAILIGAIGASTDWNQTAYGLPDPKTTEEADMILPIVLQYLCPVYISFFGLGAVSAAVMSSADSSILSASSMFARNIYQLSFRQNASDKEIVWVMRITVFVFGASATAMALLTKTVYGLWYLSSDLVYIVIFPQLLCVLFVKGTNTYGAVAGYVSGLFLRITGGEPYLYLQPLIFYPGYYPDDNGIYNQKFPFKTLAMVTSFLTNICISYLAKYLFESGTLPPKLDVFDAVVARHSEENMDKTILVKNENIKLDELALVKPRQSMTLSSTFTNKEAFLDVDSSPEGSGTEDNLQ

[9] = molecular target: T2, High affinity choline transporter 1; test: CHT inhibitors, dose response, cell-based, 5-point CRC, membrane potential dye (AID 504840); format: functional
BJ [10] = test: cytotoxicity toward BJ-TERT-LT-ST fibroblasts, dose response, cell-based, RAS-independent, luminescence (AID 1935); format: functional; settings: Homo sapiens;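 note: BJ fibroblasts immortalized with TERT plus LT and ST oncogenes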
[11] = cytotoxicity toward DRD oncogenic fibroblasts, dose response, cell-based, non-viral oncogenic, luminescence (AID 1934); format: functional; settings: Homo sapiens
[12] = Luminescence-based dose response cell-based high throughput screening assay for cytotoxic compounds using the IEC-6 intestinal epithelial cell line. [Related pubchem assays: 1858 (Summary AID.), 1825 (Counterscreen.), 1907 (Confirmation screen.)]; format: functional
BJ [13] = test: cytotoxicity toward BJ-TERT fibroblasts, dose response, cell-based, RAS-independent, luminescence (AID 1933); format: functional; settings: Homo sapiens
BJ [14] = test: cells; format: functional, cell-based; settings: Homo sapiens
[15] = molecular target: Luciferin 4-monooxygenase (Photinus pyralis, UniProt P08659); test: firefly luciferase enzyme inhibitors, dose response, biochemical, luminescence (AID 1891)
[16] = Fluorescence Cell-Based Dose Response to Identify Inhibitors of Thrombin Receptor-Activating Peptide SFLLRN-Mediated P-Selectin Induction on Platelets. [Related pubchem assays: 1663 (Primary HTS), 1889 (retest at dose ), 1891 (counterscreen), 1678 (Project Summary)]; format: functional
[17] = Luminescence Cell-Based Dose Confirmation HTS to Identify Inhibitors of Platelet Dense Granule Release. [Related pubchem assays: 1663 (Primary HTS), 1678 (Summary of Project)]; format: functional
[18] = molecular target: T3, Tyrosine-protein phosphatase non-receptor type 7 (Homo sapiens, UniProt P35236); test: inhibitors of human HePTP phosphatase, […], biochemical, absorbance, leukemia target (AID 521); format: functional
T3 sequence (P35236 whole entry): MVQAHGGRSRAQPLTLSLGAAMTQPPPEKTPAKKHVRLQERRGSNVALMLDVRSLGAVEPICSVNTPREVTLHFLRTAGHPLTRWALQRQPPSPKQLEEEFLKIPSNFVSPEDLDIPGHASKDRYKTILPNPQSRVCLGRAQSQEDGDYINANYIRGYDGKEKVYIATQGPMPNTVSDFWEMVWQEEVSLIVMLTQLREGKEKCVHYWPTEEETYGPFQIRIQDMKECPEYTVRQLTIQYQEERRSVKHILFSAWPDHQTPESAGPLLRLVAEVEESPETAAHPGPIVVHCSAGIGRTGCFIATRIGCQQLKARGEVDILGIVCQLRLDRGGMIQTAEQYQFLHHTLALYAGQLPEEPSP

[19] = molecular target: Diphosphomevalonate decarboxylase (Streptococcus pneumoniae serotype 2 (strain D39 / NCTC 7466), UniProt Q9FD53); test: S. pneumoniae DPM-DC inhibition retest, confirmation, biochemical, cuvette format, coupled NADH fluorescence (AID 1028); format: functional
Genome polyprotein = Genome polyprotein (Hepatitis C virus, UniProt Q2Q167); test: HCV core protein dimerization inhibitors, dose response, biochemical, TR-FRET (AID 2159); design: species or system Hepacivirus hominis;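 note: blocks dimerization of HCV core protein measured by TR-FRET between tagged core106 pairs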
[20] = molecular target: Protein-tyrosine kinase 2-beta (Homo sapiens, UniProt Q14289);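 note: potency of inhibitors of PYK2 kinase phosphorylation of poly-GT substrate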
Estrogen receptor = molecular target: T4, Estrogen receptor (Homo sapiens, UniProt P03372); test: potentiators of ERα–SRC-1 coactivator binding, dose response, biochemical, TR-FRET, ERα LBD (AID 737)
T4 sequence (P03372 whole entry): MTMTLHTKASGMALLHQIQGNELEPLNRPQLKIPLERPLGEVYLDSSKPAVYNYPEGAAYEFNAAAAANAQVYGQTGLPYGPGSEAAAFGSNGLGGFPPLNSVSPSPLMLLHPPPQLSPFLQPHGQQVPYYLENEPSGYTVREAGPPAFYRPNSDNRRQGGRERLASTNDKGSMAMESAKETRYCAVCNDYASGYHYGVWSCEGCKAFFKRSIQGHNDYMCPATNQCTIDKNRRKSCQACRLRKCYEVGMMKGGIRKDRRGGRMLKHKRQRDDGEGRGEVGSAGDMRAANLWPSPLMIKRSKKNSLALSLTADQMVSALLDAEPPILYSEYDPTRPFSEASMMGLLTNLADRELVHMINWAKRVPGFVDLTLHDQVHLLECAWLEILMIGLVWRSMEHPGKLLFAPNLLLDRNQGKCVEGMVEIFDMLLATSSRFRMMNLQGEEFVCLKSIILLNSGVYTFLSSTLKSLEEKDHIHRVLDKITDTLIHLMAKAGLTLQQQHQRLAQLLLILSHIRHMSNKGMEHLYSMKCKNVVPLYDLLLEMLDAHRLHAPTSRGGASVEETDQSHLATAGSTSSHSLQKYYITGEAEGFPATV

[21] = molecular target: Induced myeloid leukemia cell differentiation protein Mcl-1 (Homo sapiens, UniProt Q07820); test: MCL1-BIM BH3 interaction inhibitors, dose response, biochemical, fluorescence polarization, BIM-BH3 peptide, 1536-well (AID 2217)
Bcl-2-like protein 1 = Bcl-2-like protein 1 (Homo sapiens, UniProt Q07817); test: BCL-XL inhibitors, dose response, selectivity assay for MCL1 inhibitor project, biochemical, fluorescence polarization, 1536-well (AID 2218)
Sequence of Bcl-2-like protein 1 (Q07817 whole entry): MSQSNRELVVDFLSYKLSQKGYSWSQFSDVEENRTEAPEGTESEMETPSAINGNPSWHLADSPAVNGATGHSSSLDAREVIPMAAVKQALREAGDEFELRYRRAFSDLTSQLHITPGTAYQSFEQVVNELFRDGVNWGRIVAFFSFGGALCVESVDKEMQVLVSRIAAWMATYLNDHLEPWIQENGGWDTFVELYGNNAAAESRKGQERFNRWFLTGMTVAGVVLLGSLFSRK

Sequence of Voltage-gated inwardly rectifying potassium channel KCNH2 (Q12809 whole entry): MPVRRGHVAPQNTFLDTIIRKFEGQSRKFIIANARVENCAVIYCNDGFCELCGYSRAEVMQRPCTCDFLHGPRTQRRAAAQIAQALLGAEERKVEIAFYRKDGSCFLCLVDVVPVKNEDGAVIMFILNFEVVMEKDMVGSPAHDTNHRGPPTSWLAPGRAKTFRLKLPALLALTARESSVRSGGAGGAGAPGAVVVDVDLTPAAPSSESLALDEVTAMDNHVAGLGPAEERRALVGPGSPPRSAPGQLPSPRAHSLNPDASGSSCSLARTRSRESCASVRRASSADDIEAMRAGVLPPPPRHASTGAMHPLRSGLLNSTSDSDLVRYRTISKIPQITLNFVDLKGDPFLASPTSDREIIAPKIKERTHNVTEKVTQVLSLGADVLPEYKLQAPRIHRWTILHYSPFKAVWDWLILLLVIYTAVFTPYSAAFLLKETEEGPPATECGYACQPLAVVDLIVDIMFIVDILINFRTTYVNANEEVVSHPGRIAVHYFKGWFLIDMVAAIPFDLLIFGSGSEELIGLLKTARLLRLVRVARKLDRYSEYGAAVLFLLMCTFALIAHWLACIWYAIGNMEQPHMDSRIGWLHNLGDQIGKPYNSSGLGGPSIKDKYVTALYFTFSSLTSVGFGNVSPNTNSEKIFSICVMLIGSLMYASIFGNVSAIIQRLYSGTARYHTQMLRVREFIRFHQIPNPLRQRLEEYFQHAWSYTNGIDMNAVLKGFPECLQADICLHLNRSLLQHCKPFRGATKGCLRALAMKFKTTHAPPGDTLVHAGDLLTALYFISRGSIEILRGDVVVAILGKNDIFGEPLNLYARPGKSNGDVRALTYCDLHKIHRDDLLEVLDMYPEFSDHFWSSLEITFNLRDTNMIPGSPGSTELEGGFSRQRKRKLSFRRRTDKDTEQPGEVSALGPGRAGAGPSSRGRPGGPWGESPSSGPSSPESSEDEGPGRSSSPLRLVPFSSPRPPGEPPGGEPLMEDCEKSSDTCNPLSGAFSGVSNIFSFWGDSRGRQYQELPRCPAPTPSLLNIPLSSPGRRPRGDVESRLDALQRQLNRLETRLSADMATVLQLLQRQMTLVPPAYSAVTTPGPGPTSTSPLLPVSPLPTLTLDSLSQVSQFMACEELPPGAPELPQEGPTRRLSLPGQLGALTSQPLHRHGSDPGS
Sequence of Fructose-bisphosphate aldolase (P9WQA3 whole entry): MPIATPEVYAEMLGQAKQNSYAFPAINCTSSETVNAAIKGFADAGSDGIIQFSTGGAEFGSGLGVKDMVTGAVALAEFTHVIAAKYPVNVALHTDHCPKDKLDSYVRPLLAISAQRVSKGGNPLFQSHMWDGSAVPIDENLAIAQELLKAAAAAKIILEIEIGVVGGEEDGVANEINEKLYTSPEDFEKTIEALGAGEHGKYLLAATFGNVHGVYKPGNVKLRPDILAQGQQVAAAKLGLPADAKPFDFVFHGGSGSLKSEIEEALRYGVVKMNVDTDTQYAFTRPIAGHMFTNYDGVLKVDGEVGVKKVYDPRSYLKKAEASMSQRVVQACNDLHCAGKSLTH
Sequence of Diphosphomevalonate decarboxylase (Q9FD53 whole entry): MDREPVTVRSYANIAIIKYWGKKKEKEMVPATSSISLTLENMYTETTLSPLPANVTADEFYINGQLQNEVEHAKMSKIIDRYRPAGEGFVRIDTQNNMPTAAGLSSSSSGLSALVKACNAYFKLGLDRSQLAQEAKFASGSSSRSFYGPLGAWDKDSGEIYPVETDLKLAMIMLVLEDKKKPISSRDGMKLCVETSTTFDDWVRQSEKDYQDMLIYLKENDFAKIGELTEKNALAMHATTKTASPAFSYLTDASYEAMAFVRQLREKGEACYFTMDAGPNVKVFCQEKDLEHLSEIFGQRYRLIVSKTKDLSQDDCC
Sequence of Luciferin 4-monooxygenase (P08659 whole entry): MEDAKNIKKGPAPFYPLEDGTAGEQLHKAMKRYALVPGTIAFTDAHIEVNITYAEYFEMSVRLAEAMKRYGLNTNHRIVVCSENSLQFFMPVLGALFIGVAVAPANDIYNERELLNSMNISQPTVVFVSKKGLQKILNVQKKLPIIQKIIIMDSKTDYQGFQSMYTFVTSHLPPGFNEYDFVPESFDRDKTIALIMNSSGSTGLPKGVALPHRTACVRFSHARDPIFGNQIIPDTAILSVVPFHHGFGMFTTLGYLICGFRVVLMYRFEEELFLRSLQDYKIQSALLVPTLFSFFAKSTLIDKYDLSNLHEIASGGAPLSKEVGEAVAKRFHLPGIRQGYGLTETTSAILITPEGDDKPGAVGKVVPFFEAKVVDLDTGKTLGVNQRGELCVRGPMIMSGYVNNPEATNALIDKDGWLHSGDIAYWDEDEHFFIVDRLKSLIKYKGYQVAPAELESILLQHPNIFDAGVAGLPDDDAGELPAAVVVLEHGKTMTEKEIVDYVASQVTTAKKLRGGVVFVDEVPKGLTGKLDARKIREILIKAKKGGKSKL
Sequence of Genome polyprotein (Q2Q167 whole entry): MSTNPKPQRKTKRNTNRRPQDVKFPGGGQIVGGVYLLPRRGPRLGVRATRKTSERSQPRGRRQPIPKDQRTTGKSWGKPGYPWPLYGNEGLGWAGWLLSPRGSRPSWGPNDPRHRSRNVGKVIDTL
Sequence of Protein-tyrosine kinase 2-beta (Q14289 whole entry, the tested form may be a part): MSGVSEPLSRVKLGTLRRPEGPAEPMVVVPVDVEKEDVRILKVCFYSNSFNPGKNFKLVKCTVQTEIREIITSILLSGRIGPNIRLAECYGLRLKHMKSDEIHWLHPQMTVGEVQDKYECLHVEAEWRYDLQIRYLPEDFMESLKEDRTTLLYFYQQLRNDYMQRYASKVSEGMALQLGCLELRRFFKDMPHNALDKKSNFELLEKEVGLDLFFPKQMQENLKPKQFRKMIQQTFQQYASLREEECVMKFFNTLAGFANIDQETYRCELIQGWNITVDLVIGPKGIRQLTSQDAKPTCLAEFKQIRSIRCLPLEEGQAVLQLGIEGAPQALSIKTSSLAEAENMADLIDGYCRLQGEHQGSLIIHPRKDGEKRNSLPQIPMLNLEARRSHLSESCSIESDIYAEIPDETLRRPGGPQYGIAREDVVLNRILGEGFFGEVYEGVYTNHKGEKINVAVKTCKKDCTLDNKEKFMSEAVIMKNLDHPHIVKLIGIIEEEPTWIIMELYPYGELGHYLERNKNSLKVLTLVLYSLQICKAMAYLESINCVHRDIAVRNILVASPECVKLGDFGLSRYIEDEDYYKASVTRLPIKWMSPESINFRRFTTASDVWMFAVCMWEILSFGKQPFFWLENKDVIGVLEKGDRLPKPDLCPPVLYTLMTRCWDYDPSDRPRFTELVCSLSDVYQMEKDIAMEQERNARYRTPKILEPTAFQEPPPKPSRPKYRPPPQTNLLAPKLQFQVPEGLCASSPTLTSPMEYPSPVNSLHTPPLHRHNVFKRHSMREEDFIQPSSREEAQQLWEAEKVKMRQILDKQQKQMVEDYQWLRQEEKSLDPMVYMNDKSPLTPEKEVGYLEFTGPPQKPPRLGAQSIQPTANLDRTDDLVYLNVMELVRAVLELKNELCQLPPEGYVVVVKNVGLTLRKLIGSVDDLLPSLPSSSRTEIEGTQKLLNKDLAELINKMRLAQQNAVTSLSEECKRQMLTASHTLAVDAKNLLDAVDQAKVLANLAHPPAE
Sequence of Photoreceptor-specific nuclear receptor (Q9Y5X4 whole entry): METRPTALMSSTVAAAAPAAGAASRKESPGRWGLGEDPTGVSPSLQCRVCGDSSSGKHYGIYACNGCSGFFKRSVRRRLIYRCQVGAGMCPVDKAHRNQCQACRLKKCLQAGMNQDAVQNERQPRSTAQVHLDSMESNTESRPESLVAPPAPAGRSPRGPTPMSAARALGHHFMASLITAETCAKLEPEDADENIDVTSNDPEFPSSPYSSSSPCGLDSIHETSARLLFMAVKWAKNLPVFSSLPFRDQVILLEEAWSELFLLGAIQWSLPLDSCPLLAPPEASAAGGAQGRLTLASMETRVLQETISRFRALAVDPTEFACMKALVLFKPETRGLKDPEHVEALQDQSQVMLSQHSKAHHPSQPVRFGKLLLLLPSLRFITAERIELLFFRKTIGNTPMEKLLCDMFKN
Sequence of Induced myeloid leukemia cell differentiation protein Mcl-1 (Q07820 whole entry): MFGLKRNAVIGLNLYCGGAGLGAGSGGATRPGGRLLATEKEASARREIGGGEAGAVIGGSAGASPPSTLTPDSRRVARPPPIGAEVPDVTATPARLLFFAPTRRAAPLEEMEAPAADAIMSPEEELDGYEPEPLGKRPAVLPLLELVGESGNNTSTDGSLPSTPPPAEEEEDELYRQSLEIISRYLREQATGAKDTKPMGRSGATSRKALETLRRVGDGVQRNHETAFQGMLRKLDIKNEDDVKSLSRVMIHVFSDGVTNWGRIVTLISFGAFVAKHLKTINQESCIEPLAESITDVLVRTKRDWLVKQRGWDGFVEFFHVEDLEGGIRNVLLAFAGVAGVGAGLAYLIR

## Cc1sc2ncnc(SCC(=O)NC(=O)c3cccn3C)c2c1C
[1]
  IC50: 6.6 µM (active)
[2]
  IC50: 3.97 µM (active)
[3]
  EC50: 7.84 µM (active)

## C=C(NNc1c(Cl)c(Cl)nc(C(=O)O)c1Cl)c1ccc2cc(OC)ccc2c1
NADPH oxidase 1
  IC50: > 17 µM (not active)

## CN1CCN(CCNC(=O)c2ccc3nc(-c4ccc(F)cc4)c(-c4ccc(F)cc4)nc3c2)CC1
Vero [4]
  CC50: 16.9 µM (active)
Vero [5]
  IC50: > 25 µM (active)
[6]
  IC50: > 1.11 µM (active)
Vero [7]
  IC50: 21.7 µM (active)
[8]
  IC50: 1.58 µM (active)
[9]
  IC50: 4.58 µM (active)

## CCCNc1nc(-c2ccccc2)c(C(=O)OCC)cc1C#N
BJ [10]
  EC50: 4.54 µM (inconclusive)
[11]
  EC50: 16.3 µM (active)
[12]
  IC50: 4.2 µM (active)
BJ [13]
  EC50: 8.98 µM (inconclusive)
BJ [14]
  EC50: 26 µM (active)

## CCOc1ccc2[nH]c(NCCO)nc2c1
[15]
  EC50: > 112 µM (not active)
[16]
  EC50: > 100 µM (not active)
[17]
  EC50: 0.205 µM (active)

## O=C(Nc1ncnc2c1ncn2C1OC(COC(=O)c2ccccc2)C(F)C1O)c1ccccc1 (stereo not given)
[18]
  IC50: > 100 µM (not active)

## CCCNC(=O)c1cccc(-n2sc3ccccc3c2=O)c1
[19]
  IC50: 18.4 µM (active)

## Cc1ccc(S(=O)(=O)N2Cc3ccccc3CC2C(=O)Nc2ccc3c(c2)OCO3)cc1 (stereo not given)
Genome polyprotein
  IC50: > 49.8 µM (not active)

## O=C(Oc1ccc(-c2cnc3ccccc3n2)cc1)c1ccc(Br)o1
[20]
  IC50: > 69.5 µM (not active)
Estrogen receptor
  EC50: 6.97 µM (active)

## O=C(O)C(C(=O)/C=C/c1ccco1)=C1SCCS1
[21]
  IC50: 21.9 µM (not active)
Bcl-2-like protein 1
  IC50: > 109 µM (not active)
